Measured values published in patent US5389641A, “Fused heterocyclic compounds, having angiotensin II antagonistic activity” (Takeda Chemical Industries, Ltd., priority 1991, dated 1995).
Blank lines part the entries; values can stand above or below the compound they belong to.

Key:
AII receptor = target: T1, AII receptor (Bos taurus, UniProt P25104); assay: Inhibition of binding of [125I]-angiotensinII to AII receptor (radioreceptor assay); details: 1 h, membrane fraction from bovine adrenal cortex, room temperature, one hour; for inhibition at 1 µM: 10^-6 (M); for inhibition at 0.1 µM: 10^-7 (M)
T1 construct: An AII receptor membrane fraction was prepared from bovine adrenal cortex; from tissue; host or cells: bovine adrenal cortex, membrane fraction
T1 sequence (P25104 1-359): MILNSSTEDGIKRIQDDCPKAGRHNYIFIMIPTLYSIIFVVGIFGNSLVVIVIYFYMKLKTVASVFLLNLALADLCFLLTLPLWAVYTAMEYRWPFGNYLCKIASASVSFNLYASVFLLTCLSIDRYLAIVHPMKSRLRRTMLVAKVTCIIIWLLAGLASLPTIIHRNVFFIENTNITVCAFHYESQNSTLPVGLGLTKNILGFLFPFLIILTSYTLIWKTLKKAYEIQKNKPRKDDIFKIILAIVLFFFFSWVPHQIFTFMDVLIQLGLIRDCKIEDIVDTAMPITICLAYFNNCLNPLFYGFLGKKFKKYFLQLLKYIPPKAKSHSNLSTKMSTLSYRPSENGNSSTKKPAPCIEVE
Procedure: An experiment of inhibition on the binding of angiotensinII (AII) to AII receptor was conducted by modifying the method of Douglas et al. [Endocrinology, 102, 685-696 (1978)]. An AII receptor membrane fraction was prepared from bovine adrenal cortex.
The compound of the present invention (10 ^-6 M or 10^-7 M) and [^125 I]-angiotensinII ([^125 I]-AII) (1.85 kBq/50 μl) were added to the receptor membrane fraction, and the mixture was incubated at room temperature for one hour. The receptor-bound and free [^125 I]-AII were separated through a filter (Whatman GF/B filter), and the radioactivity of [^125 I]-AII bound to the receptor was measured.

[1] = reported in literature; cited from earlier work

SMILES: CCCc1cn2ncc(C(=O)O)c2n1Cc1ccc(-c2ccccc2-c2nn[nH]n2)cc1 [Example 6, 5-Propyl-4-[[2'-(1H-tetrazol-5-yl)biphenyl-4-yl]methyl]-imidazo[1,2-b]pyrazol-3-carboxylic acid]
- inhibition at 1 µM (AII receptor): 91%
- inhibition at 0.1 µM (AII receptor): 60%

SMILES: CCCc1nn2ncc(C(=O)O)c2n1Cc1ccc(-c2ccccc2-c2nnn[nH]2)cc1 [Example 11, 2-Propyl-1-[[2'-(1H-tetrazol-5-yl)biphenyl-4-yl]methyl]-1H-pyrazolo[1,5-b][1,2,4]triazole-7-carboxylic acid]
- inhibition at 1 µM (AII receptor): 86%
- inhibition at 0.1 µM (AII receptor): 54%

SMILES: CCOc1nc(C(=O)O)c2c(n1)nc(OCC)n2Cc1ccc(-c2ccccc2-c2nnn[nH]2)cc1 [Example 13, 2,8-Diethoxy-7-[[2'-(1H-tetrazol-5-yl)biphenyl-4-yl]methyl]purine-6-carboxylic acid]
- inhibition at 1 µM (AII receptor): 49%
- inhibition at 0.1 µM (AII receptor): 20%

SMILES: CCc1cc2c(=O)c3cccc(C(=O)OCOC(=O)C(C)(C)C)c3n(Cc3ccc(-c4ccccc4-c4nnn[nH]4)cc3)c2s1 [Example 14, Pivaloyloxymethyl 2-ethyl-4-oxo-9-[[2'-(1H-tetrazol-5-yl)biphenyl-4-yl]methyl]-4,9-dihydrothieno[2,3-b]quinoline-8-carboxylate]
- inhibition at 1 µM (AII receptor): 69%
- inhibition at 0.1 µM (AII receptor): 31%

SMILES: CCc1cc2c(=O)c3cccc(C(=O)OC(C)OC(=O)OC4CCCCC4)c3n(Cc3ccc(-c4ccccc4-c4nnn[nH]4)cc3)c2s1 (stereo not drawn) [Example 15, 1-(Cyclohexyloxycarbonyloxy)ethyl 2-ethyl-4-oxo-9-[[2'-(1H-tetrazol-5-yl)biphenyl-4-yl]methyl]-4,9-dihydrothieno[2,3-b]quinoline-8-carboxylate]
- inhibition at 1 µM (AII receptor): 19%
- inhibition at 0.1 µM (AII receptor): 1%

SMILES: CCCc1nn2ncc(C(=O)OCOC(=O)C(C)(C)C)c2n1Cc1ccc(-c2ccccc2-c2nnn[nH]2)cc1 [Example 20, Pivaloyloxymethyl 2-propyl-1-[[2'-(1H-tetrazol-5-yl)biphenyl-4-yl]methyl]-1H-pyrazolo[1,5-b][1,2,4]triazole-7-carboxylate]
- inhibition at 1 µM (AII receptor): 61%
- inhibition at 0.1 µM (AII receptor): 21%

SMILES: CNCC(=O)N[C@@H](CCCN=C(N)N)C(=O)N[C@H](C(=O)N[C@@H](Cc1ccc(O)cc1)C(=O)N[C@H](C(=O)N[C@@H](Cc1cnc[nH]1)C(=O)N1CCC[C@H]1C(=O)N[C@@H](C)C(=O)O)C(C)C)C(C)C [saralasin]
- angiotensinII antagonist activity [1]: potent

The next lines start with the values.

- inhibition at 1 µM (AII receptor): 92%
- inhibition at 0.1 µM (AII receptor): 63%
SMILES: CCCCc1nc2c(C)cnc(C(=O)O)c2n1Cc1ccc(-c2ccccc2-c2nnn[nH]2)cc1 [Example 1, 2-Butyl-7-methyl-3-[[2'-(1H-tetrazol-5-yl)biphenyl-4-yl]methyl]-3H-imidazo[4,5-c]pyridine-4-carboxylic acid]

- inhibition at 1 µM (AII receptor): 92%
- inhibition at 0.1 µM (AII receptor): 54%
SMILES: CCCc1nc2c(C)cnc(C(=O)O)c2n1Cc1ccc(-c2ccccc2-c2nnn[nH]2)cc1 [Example 2, 2-Propyl-7-methyl-3-[[2'-(1H-tetrazol-5-yl)biphenyl-4-yl]methyl]-3H-imidazo[4,5-c]pyridine-4-carboxylic acid]

- inhibition at 1 µM (AII receptor): 49%
- inhibition at 0.1 µM (AII receptor): 12%
SMILES: CCc1cc2c(=O)c3cccc(C(=O)O)c3n(Cc3ccc(-c4ccccc4-c4nnn[nH]4)cc3)c2s1 [Example 3, 2-Ethyl-4-oxo-9-[[2'-(1H-tetrazol-5-yl)biphenyl-4-yl]methyl]-4,9-dihydrothieno[2,3-b]quinoline-8-carboxylic acid]

- inhibition at 1 µM (AII receptor): 67%
- inhibition at 0.1 µM (AII receptor): 27%
SMILES: CCCCc1nc2cccc(C(=O)O)c2n1Cc1ccc(-n2cccc2-c2nnn[nH]2)cc1 [Example 7, 2-Butyl-1-[[4-[2-(1H-tetrazol-5-yl)-1-pyrrolyl]phenyl]methyl]benzimidazole-7-carboxylic acid]

- inhibition at 1 µM (AII receptor): 39%
- inhibition at 0.1 µM (AII receptor): 0%
SMILES: CCCc1cc2cccc(C(=O)O)c2n1Cc1ccc(-c2ccccc2-c2nnn[nH]2)cc1 [Example 17, 2-Propyl-1-[[2'-(1H-tetrazol-5-yl)biphenyl-4-yl]methyl]indole-7-carboxylic acid]

- inhibition at 1 µM (AII receptor): 70%
- inhibition at 0.1 µM (AII receptor): 26%
SMILES: CCCCc1nc2cccc(C(=O)O)c2n1Cc1ccc(-c2ccccc2-c2nnn[nH]2)nc1 [Example 21, 2-Butyl-1-[[2-[2-(1H-tetrazol-5-yl)phenyl]pyridin-5-yl]methyl]benzimidazole-7-carboxylic acid]

- inhibition at 1 µM (AII receptor): 80%
- inhibition at 0.1 µM (AII receptor): 39%
SMILES: CCCCc1nc2cccc(C(=O)O)c2n1Cc1ccc2c(=O)n(-c3ccccc3-c3nnn[nH]3)cnc2c1 [Example 26, 2-Butyl-1-[[4-oxo-3-[2-(1H-tetrazol-5-yl)phenyl]-3,4-dihydroquinazolin-7-yl]methyl]benzimidazole-7-carboxylic acid]
